Experimental data: patent USRE38329E1, “Chelated complexes of paramagnetic metals with low toxicity” (Bracco Imaging S.p.A., priority 1997, dated 2003)

system: mouse; assay: DL50 after intracerebroventricular administration to the mouse (neurotoxicity / molecular toxicity); type: in vivo
Source text: DL50 values after intracerebral administration (intracisternal, intracerebroventricular), for example in the mouse and in the rat, can therefore be taken as a highly sensitive index of the molecular toxicity of the contrast agent (Toxicology Letters, cited ref.). In particular, the intracerebroventricular administration seems to be the most sensitive to discriminate the neurotoxicity of the compounds (Proceedings of the 10th National Congress of the Italian Toxicology Society, Pavia, September 21-24th, 100, 1994).
The present invention relates to chelated complexes of paramagnetic metals characterized by an extremely favourable neurotoxicity profile. […] The compound described in example 1 (gadolinium complex of 10-[2-[[2-(2-hydroxyethoxy)ethyl]amino]-2-oxoethyl]-α,α′,α″-tris(hydroxymethyl)-1,4,7,10-tetraazacyclododecane-1,4,7-triacetic) acid has, for example, a DL50 of 0.23 mmol/kg after intracerebroventricular administration to the mouse. The compounds described in example 2 (gadolinium complex of α,α′,α″-tris (hydroxymethyl)-10-(2-hydroxypropyl)-1,4,7,10-tetraazacyclododecane-1,4,7-triacetic acid) and in Example 4 (Na^+Gd[THM-DOTA]^−) have a very good tolerability as well, with a DL50, after intracerebroventricular administration to the mouse, of 0.170 and 0.150 mmol/kg, respectively; the corresponding value for Gd-DOTA being 0.064 mmol/kg.

SMILES	DL50 after intracerebroventricular administration to the mouse [mmol/kg]
O=C(CN1CCN(C(CO)C(=O)[O-])CCN(C(CO)C(=O)[O-])CCN(C(CO)C(=O)[O-])CC1)NCCOCCO.[Gd+3] (stereo not drawn) [Example 1, Gadolinium complex of 10-[2-[[2-(2-hydroxyethoxy)ethyl]amino]-2-oxoethyl]-α,α′,α″-tris(hydroxymethyl)-1,4,7,10-tetraazacyclododecane-1,4,7-triacetic acid]	0.23
O=C([O-])CN1C[C@@H](CO)N(CC(=O)[O-])C[C@@H](CO)N(CC(=O)[O-])C[C@@H](CO)N(CC(=O)[O-])C[C@H]1CO.[Gd+3].[Na+] (relative stereo) [Example 4, Gadolinium complex of [2S-(2R*,5R*,8R*,11R*)]-2,5,8,11-tetra(hydroxymethyl)-1,4,7,10-tetraazacyclododecane-1,4,7,10-tetraacetic acid sodium salt (1:1)]	0.150
O=C([O-])CN1CCN(CC(=O)[O-])CCN(CC(=O)[O-])CCN(CC(=O)[O-])CC1.[Gd+3] [Gd-DOTA, reference compound]	0.064
